Reference: patent US20120322751A1 (priority 2010, published 2012)
≈ marks a conversion by molar mass, not a printed value.

Columns and labels:
[1] = biological target: T1, Guinea pig lung LTC4 synthase (Cavia porcellus, UniProt A6XA80); assay: Leukotriene C4 synthase inhibition (EIA); assay type: biochemical; conditions: highest concentration (1,000 μM/ml); solvent DMSO
T1 construct: Guinea pig lung LTC4 synthase was used; from tissue; host or cells: guinea pig lung
T1 sequence (A6XA80 1-150): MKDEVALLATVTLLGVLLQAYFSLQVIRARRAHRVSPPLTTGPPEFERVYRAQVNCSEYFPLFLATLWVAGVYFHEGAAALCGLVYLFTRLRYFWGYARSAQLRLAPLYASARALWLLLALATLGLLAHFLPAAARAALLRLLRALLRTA
Description: Leukotriene C4 (LTC4) synthase is crucial in the formation of LTC4 from LTA4. Taken together with other assays for enzymes involved in the lipoxygenase pathway (e.g. 5-lipoxygenase, LTA4 hydrolase), a locus of action can be established, mechanism of agents' activities which inhibit the formation of the leukotrienes.
Guinea pig lung LTC4 synthase was used. Test compound and/or vehicle was preincubated with 180 μg/ml enzyme dissolved in phosphate buffer pH 7.8 for 15 minutes at 37° C. The reaction was initiated by addition of 2.5 μg/ml LTA4 methyl ester for another 30 minute incubation period and terminated by further addition of ice-cold methanol. Determination of the amount of LTC4 formed was read spectrophotometrically by enzyme immunoassay kit (EIA). Compounds was tested at the concentrations of 1,000; 100; 10; and 1 μM/ml. The used solvent was DMSO.

[2] = Preservation of structure during 10 years after production; assay type: physicochemical; conditions: under nitrogen N2 in glass bottles at room temperature
From the text: On the figure has been shown the purity of the rhamnolipid BAC-3 (FIG. 10) and mass spectrum (FIG. 11) ten years after production. The production of the rhamnolipid BAC-3 purity>98.5 is very expensive procedure. Therefore one of the most important task of rhamnolipid BAC-3 production is achieving clinically acceptable purity without using HPLC-MS equipment, except for control purposes of the purity and mass spectrum.

[3] = test system: Normal human fibroblasts derived from foreskin; assay: Collagen synthesis and total protein synthesis by human fibroblasts in vitro; assay type: cell-based
Description: a) Neonatal human fibroblast culture was established from a sample of neonatal human foreskin obtained by circumcision. After removal of subcutaneous tissue by dissection, the sample was desegregated by trypsinization with 0.25% trypsin and 1 mM EDTA solution (Gibco). Released cells were propagated in 100 mm plastic tissue culture dishes (Corning) in incubator at 37° C. saturated with 5% CO2. The medium, changed twice weekly, was a mixture of 0.2 mg/ml calcium, 4500 mg/l glucose in Dulbecco's modified Eagle's medium (DMEM, Gibco) supplemented with 10% fetal bovine serum FBS (Gemini-Bio-Products), 0.292 mg/ml L-glutamine (Gibco) and antibiotic-antimycotic solution containing 100 U penicillin-G/ml, 100 mcg/ml streptomycin and 0.25 mcg/ml fungizione in normal saline (Gemini-Bio-Products). Primary culture cells were trypsinized. To achieve enough cells of the same passage, the cells were replanted two times during two weeks and transplanted in bigger dishes before incubation started. At density 5×10^5 NHK 98-009 of fibroblasts of passage 4 was transplanted in Petri dishes in DMEM medium. When cells achieved ca 50% of confluence they were treated with solutions of BAC-3 with 0; 1; 10; 100; 250; and 500 μg/ml and 50 μg/ml of ascorbic acid (Sigma). All solutions were filtrated through 0.2 μm filters (Fisher). The media with or without BAC-3 were changed once after two days. 100 μg of ascorbic acid were added each day in media until achieving final concentration of 50 μg/ml of ascorbic acid in each of Petri dishes. […]
Normal human fibroblasts derived from foreskin were cultured in T-25 flasks and were treated with BAC-3 at concentrations of 1 μg/ml, 10 μg/ml, and 100 μg/ml in the way previously described. […] One half of the sonicate was hydrolyzed in 6N HCl; hydroxyproline was measured in the hydrolisate to determine collagen synthesis. […] Total collagen per flask was determined multiplying the hydroxiproline value by 7.8. […]

[4] = test system: human mononuclear cells (MNC); assay: cells; assay type: cell-based
[5] = test system: TPA/pyr induced acute ear inflammation; assay: TPA/pyr induced acute ear inflammation; assay type: in vivo, Swiss-Webster mice; conditions: topical 0.1% solution
From the text: The inflammatory responses occur in three distinct phases, each apparently mediated by different mechanisms: an acute one characterized by local vasodilatation and increased capillary permeability, a subacute phase characterized by infiltration of leukocyte and phagocytic cells and a chronic proliferative phase, in which tissue degeneration and fibrosis occur. Acute inflammation generated by TPA (12-o-tetradecanoylforbolacetat/pyridine) induces an acute inflammatory reaction consisting of erythema, edema and polymorphonuclear leukocyte (PMN) infiltration The mechanism of anti-inflammatory mode of action of di-rhamnolipid BAC-3 is unknown. So far, it has been shown that Pseudomonas di-rhamnolipids stimulate, both chemotaxis and chemokinesis of leukocytes). In vitro studies examining the effects of pulmonary surfactant containing hydrophobic apopoproteins on human neutrophils have the important role of the protein component of the surfactant in enhancing the leukocyte chemotaxis, opsonizing bacteria, enhancing macrophage function, and stimulating antibody production. […] Correspondingly, it has been recognized that glycolipids (biosurfactants) through their virtue of hidrophilic head bind to proteins, i.e. receptors on cell membranes. […] It has been proposed that rhamnolipid increased the early recruitment of inflammatory cells to the site of inflammation without triggering a persistent, abnormal accumulation of neutrophils.
In the experiment it was proven that rhamnolipd (BAC-3) at concentration (1 mg/ml^−1, 0.1% w/v) was effective as a topical therapeutic anti-inflammatory agent in the TPA/pyr model of acute dermal ear inflammation in female Swiss-Webster mice over a time-course of 24 hours. The time of maximal reduction of inflammation was dependent on the time of treatment, with respect to induction.
Post treatment with BAC-3 two hour after inflammation reversed established inflammation with maximal effect after 11 hours. (32% lower inflammation in comparison with control). […]

[6] = test system: DNCB induced delayed type hypersensitivity reactions; assay: Delayed type hypersensitivity (DTH) in DNCB sensitised nude guinea pigs; assay type: in vivo, nude guinea pig; conditions: topical twice daily during 7 days; by day 7; preliminary data
Description: The nude guinea pig is used as test animal because of different animal skins, nude guinea pig skin is claimed to be the one closest resembling human skin. […] In DNCB sensitised guinea pigs delayed type hypersensitivity reactions were induced with patches soaked with 0.25% (w/v) DNCB in ethanol/propylene glycol kept on the animals back for 24 hours. The test sites were treated twice daily during 7 days with: Dovonex (commercially available ointment with calcipotriene; 1% (w/w) BAC-3 in US petrolatum. Locobasis (commercially available ointment, identical as carrier for steroids; 1% (w/w) non purified BAC-3 (86%) in US petrolatum; US petrolatum; Preferid (commercially available steroid).

Structure (SMILES) | inhibition at 1000 µM [1] | structure after storage [2] | percent of protein synthesis dedicated to collagen synthesis ([3]; 1, 10, 100 μg/ml, harvested day 4 and day 7, vs control cells, p<0.05 ANOVA) | total collagen synthesis per flask ([3]; treated as in example 6, FIG. 9 (2a)) | overall protein synthesis per flask ([3]; treated as in example 6, FIG. 9 (2b)) | inhibition of MNC proliferation with SEB as stimulus [4] | proliferation of MNC as response to different stimulants [4] | IC50 ([4]; Homo sapiens, PHA at 1 μg/ml, printed 'at the concentration of 5 μg/ml', read-out: IC50, inhibition of MNC proliferation in response to PHA) | decrease of inflammation vs control ear, pre-treatment ([5]; single dose 1 hour before TPA/pyr) | lower inflammation vs control, post treatment ([5]; two hours after induction, maximal effect after 11 hours) | inhibition of inflammation vs control ear, concurrent treatment ([5]; with TPA/pyr induction, at 6 hours) | state of DTH test area [6]
CCCCCCCC(CC(=O)O)OC(=O)CC(CCCCCCC)OC1OC(C)C(O)C(O)C1OC1OC(C)C(O)C(O)C1O (stereo not shown) [BAC-3] | 81% | did not change its structure | significantly reduced | decreases synthesis of collagen | increase in overall synthesis | almost no inhibition | inhibited proliferation | 35 µg/mL (≈ 53.8 µM) | 15% | 32% | about 32% | almost healed with only a slight erythema present
C=C1/C(=C\C=C2/CCC[C@]3(C)[C@@H]([C@H](C)/C=C/[C@@H](O)C4CC4)CC[C@@H]23)C[C@@H](O)C[C@@H]1O [calcipotriene, reference compound] | – | – | – | – | – | – | – | – | – | – | – | almost healed with only a slight erythema present
